Tests used:
[1] = test system: M059K cells; assay: MTT cell viability assay, DZ325 + cercosporin (FIG. 2); assay type: cell-based, human
Experimental: FIG. 2—Cell viability of M059K cells: Compound DZ325+cercosporin.
(§1) The efficacy of the chemiluminescent compounds DZ325 and EK297 was tested in cell cultures of human glioblastoma multiforme cell lines (U87, T98G, M059K and LN-18).
(§2) The cells were inoculated in 96-well plates and left to attach overnight at 37° C. in a 5% CO2, humidified atmosphere. Subsequently the cells were incubated with (i) the photosensitizer (cercosporin) or the photosensitizer precursor (5-ALA, for the generation of the photosensitizer PpIX); and (ii) the compound at the appropriate concentration. In the case of 5-ALA, its introduction to the cell culture preceded that of the chemiluminescent compound by 1 hour to ensure adequate PpIX production. In the case of cercosporin, it was administered at the same time as the chemiluminescent compound. […]
(§3) 24 hours from the introduction of the chemiluminescent compounds to the cells, the cell media was removed and replaced with 100 μL of media containing 0.5 mg/mL thiazolyl blue salts for the performance of a standard MTT viability assay. […] The endpoint absorbance measurement was made at 561 nm. […] The experimental cell viability of the combined treatment (photosensitizer+chemiluminescent compound) was compared to the theoretical additive treatment of the photosensitizer+chemiluminescent compound which was calculated as follows: […]

[2] = test system: LN18 cells; assay: MTT cell viability assay, DZ325 + cercosporin (FIG. 1); assay type: cell-based, human
Experimental: FIG. 1—Cell viability of LN18 cells: Compound DZ325+cercosporin.
as §1, §2, §3

[3] = test system: human glioblastoma multiforme cell lines (U87, T98G, M059K and LN-18); assay: MTT cell viability assay, chemiluminescent compound plus photosensitizer (FIG. 3); assay type: cell-based
Experimental: as §1
The cells were inoculated in 96-well plates and left to attach overnight at 37° C. in a 5% CO2, humidified atmosphere. Subsequently the cells were incubated with (i) the photosensitizer (cercosporin) or the photosensitizer precursor (5-ALA, for the generation of the photosensitizer PpIX); and (ii) the compound at the appropriate concentration. In the case of 5-ALA, its introduction to the cell culture preceded that of the chemiluminescent compound by 1 hour to ensure adequate PpIX production. In the case of cercosporin, it was administered at the same time as the chemiluminescent compound.
The chemiluminescent compounds were prepared as 50 mM stock solutions in DMSO (or 1-methyl-2-pyrrolidone) and diluted in cell media to their final concentrations. Cercosporin was prepared as a 4 mM solution in DMSO and appropriately diluted in cell media. 5-ALA was made to its final concentration in Optimem. In the case of the luminol-based compound (DZ325), Cu was in some cases added to the cell media in the form of CuSO4 at a final concentration of 100 μM.
24 hours from the introduction of the chemiluminescent compounds to the cells, the cell media was removed and replaced with 100 μL of media containing 0.5 mg/mL thiazolyl blue salts for the performance of a standard MTT viability assay. The MTT containing medium was left to incubate for 1 to 3 hours and then removed and replaced with 100 μL DMSO. The endpoint absorbance measurement was made at 561 nm. Media only controls were used as 100% cell viability controls. The experimental cell viability of the combined treatment (photosensitizer+chemiluminescent compound) was compared to the theoretical additive treatment of the photosensitizer+chemiluminescent compound which was calculated as follows:
In each figure, one example of synergy is highlighted. […] Calculated cell viability is determined according to the following equation (in which “PS”=photosensitizer; “CL”=chemiluminescent agent): […]

Cc1ccc(S(=O)(=O)NCCCNc2cccc3c(=O)[nH][nH]c(=O)c23)cc1 [DZ325, N-(3-((1,4-dioxo-1,2,3,4-tetrahydrophthalazin-5-yl)amino)propyl)-4-methylbenzenesulfonamide]
synergy between chemiluminescent compound and photosensitizer [1]: synergy
synergy between chemiluminescent compound and photosensitizer [2]: synergy

Cc1ccc(S(=O)(=O)N2CCN(C(=O)c3cc(Br)c(OC(=O)c4c5ccccc5[n+](C)c5ccccc45)c(Br)c3)CC2)cc1.O=S(=O)([O-])C(F)(F)F [EK297, 9-((2,6-dibromo-4-(4-tosylpiperazine-1-carbonyl)phenoxy)carbonyl)-10-methylacridin-10-ium trifluoromethanesulfonate]
experimental cell viability of combined treatment ([3]; 3 μM cercosporin+400 μM EK297, MTT 24 hours, FIG. 3): 21.5%
calculated cell viability (theoretical additive) ([3]; 3 μM cercosporin+400 μM EK297, calculated from single-agent viabilities): 59.5%
synergy between chemiluminescent compound and photosensitizer ([3]; EK297 with cercosporin, experimental vs calculated viability): cytotoxic synergy
viability at 400 µM ([3]; Homo sapiens, 400 μM EK297 alone, MTT 24 hours, FIG. 3, cell line not stated, read-out: cell viability (printed as 'toxicity')): 74.5%

COc1c(CC(C)O)c2c3c(CC(C)O)c(OC)c(=O)c4c(O)cc5c(c6c(cc(O)c(c1=O)c62)OCO5)c43 (stereo not shown) [cercosporin, reference compound]
viability at 3 µM ([3]; Homo sapiens, 24 h, read-out: cell viability): 80%
